Experimental data from patent US20230346717A1, “IDENTIFICATION AND USE OF COMPOUNDS IN THE TREATMENT OR PREVENTION OF SEVERE ACUTE RESPIRATORY SYNDROME CORONAVIRUS 2” (priority 2020, published 2023).
Where a name gives a salt, the structure may show the parent alone.

Tests used:
Type in all cases: cell-based, human
PSAP = test: Gene expression assay, lysosome gene PSAP; conditions: probe 200866_s_at; ARPE-19/HPV-16, 10 μM, 24 h
Source text: (§1) A drug screen was used to test agents having the potential to treat or prevent SARS-CoV-2 infection. The retinal pigment epithelia cell line, ARPE-19/HPV-16, was chosen to establish a database of drug profiles because of its non-cancerous, human origin, with a normal karyotype. ARPE-19/HPV-16 can be easily grown as monolayer in 96-well plates and expresses a variety of well known, neuronal, cell surface receptors that include the dopamine receptor D2, the serotonin receptors 1A, 2A, and 2C, the muscarinic receptor M3, and the histamine receptor H1.
(§2) Cell lines were propagated according to supplier's specifications (ATCC Manassas, VA). Compounds were obtained from Sigma (St. Louis, MO) or Vanda Pharmaceuticals (Washington, DC). Cells were aliquoted on 96-well plates (˜2×10^5 cells/well) and incubated for 24 hours prior to providing fresh media with a drug, or the drug vehicle (water, dimethyl sulfoxide, ethanol, methanol, or phosphate-buffered saline solution). Drugs were diluted 1000-fold in buffered Advanced D-MEM/F-12 culture medium (Invitrogen, Carlsbad, CA) containing nonessential amino acids and 110 mg/L sodium pyruvate. […]
(§3) Cells were harvested 24 hours after treatment and RNA was extracted using the RNeasy 96 protocol (Qiagen, Valencia, CA). […] A total of 708 microarrays were analyzed including 74 for 18 antipsychotics, 499 for 448 other compounds, and 135 for vehicle controls. […]

CTBS = test: Gene expression assay, lysosome gene CTBS; conditions: probe 218924_s_at; ARPE-19/HPV-16, 10 μM, 24 h
Source text: as §1, §2, §3

CTSK = test: Gene expression assay, lysosome gene CTSK; conditions: probe 202450_s_at; ARPE-19/HPV-16, 10 μM, 24 h
Source text: as §1, §2, §3

RNASET2 = test: Gene expression assay, lysosome gene RNASET2; conditions: probe 217983_s_at; ARPE-19/HPV-16, 10 μM, 24 h
Source text: as §1, §2, §3

GALC = test: Gene expression assay, lysosome gene GALC; conditions: probe 204417_at; ARPE-19/HPV-16, 10 μM, 24 h
Source text: as §1, §2, §3

LGMN = test: Gene expression assay, lysosome gene LGMN; conditions: probe 201212_at; ARPE-19/HPV-16, 10 μM, 24 h
Source text: as §1, §2, §3

## NC12CC3CC(CC(C3)C1)C2 [Amantadine Hydrochloride]
PSAP
  avg_tx (log2) PSAP: 10.59 log2
  diff (log2) PSAP: −1.36 log2
CTBS
  avg_tx (log2) CTBS: 6.59 log2
  diff (log2) CTBS: −1.32 log2
CTSK
  avg_tx (log2) CTSK: 7.09 log2
  diff (log2) CTSK: −1.81 log2
RNASET2
  avg_tx (log2) RNASET2: 8 log2
  diff (log2) RNASET2: −1.81 log2
GALC
  avg_tx (log2) GALC: 6.58 log2
  diff (log2) GALC: −2.06 log2
LGMN
  avg_tx (log2) LGMN: 8.33 log2
  diff (log2) LGMN: −1.35 log2
